Usually logP stands for a log measure of how a compound divides between an organic and an aqueous phase. High values mean higher lipophilicity, low ones lower lipophilicity.

Molecules are shown by their SMILES.

The text below walks through data of the OPERA property sets (Mansouri et al. 2018).

For `Cc1ccccc1NC(=O)CN1CCCCC1`, the logP is 2.26.

Molecule `Cc1cc(C(=O)O)no1` yielded a logP of 0.68.

As to `CCCCC(=O)NN`, the logP was -0.11.

In turn, `CN(C)c1cnnc(N(C)C)c1` came in with a log partition coefficient (logP) of 0.84.

Turning to `O=C(Cn1ccnc1[N+](=O)[O-])N(CO)CO`, the lipophilicity (logP) was -1.59.

Consider `CNC(=O)Oc1cc(C)cc(C(C)(C)C)c1`, for which the logP amounted to 3.35.

In turn, `OC(CN1CCCC1)c1ccccc1` (stereo unspecified) yielded a logP of 1.38.

Take `CN(C)C(=O)Cc1ccco1`: the logP is 0.01.

The molecule `Cc1nnc(C=NO)s1` returned a logP of 0.78.

Take `CNC(=O)C(CC(C)C)NC(C)=O` (stereo unspecified): the logP is 0.14.

`Cc1cc(C)cc(OC2OC(CO)C(O)C(O)C2O)c1` (stereo unspecified) showed a logP of 0.26.

`CC12CC3CC(C1)CC(N)(C3)C2` yielded a logP of 3.01.

For `CCc1ccc2c(c1)C(c1ccccc1F)=NCC(=O)N2`, the logP was determined as 2.92.

`FC(F)(F)CCc1ccccc1` displayed a logP of 3.31.

Turning to `OCC(CO)(CO)CBr`, the logP is -0.7.

Take `NC(=O)c1cccc(OC(=O)CNC(=O)c2ccccc2)c1`: the logP was determined as 1.2.

Regarding `O=NN(CCCl)C(=O)NC(CCC(=O)O)C(=O)O` (stereo unspecified), the logP was determined as 0.6.

Take `COCC(O)Cn1cc([N+](=O)[O-])nc1C` (stereo unspecified): the logP was -0.36.

`CCCC(=O)N(C)SN(C)C(=O)Oc1cccc2c1OC(C)(C)C2` had a logP of 3.8.

On to `CCOP(=S)(OCC)SCS(=O)C(C)(C)C` (stereo unspecified), for which the logP was 2.21.

`CN=C1SC(=Cc2ccc([N+](=O)[O-])o2)C(=O)N1C` registered a logP of 1.42.

`O=C(NC(CO)C(O)c1ccc(Cl)cc1)C(Cl)Cl` (stereo unspecified) displayed a logP of 1.64.

In turn, `CN(CCO)N=Nc1ccccc1` displayed a logP of 1.71.

Molecule `CCCCCCCCCC[n+]1ccc(C)c(C)c1.[I-]` gave a logP of 0.66.

For the molecule `COc1cc(Cc2cnc(N)nc2N)cc(OC)c1CO`, the log partition coefficient (logP) was found to be 0.42.

`COC(=O)C(C#N)=NNc1c(Cl)cc(C(F)(F)F)cc1Cl` showed a logP of 4.36.

As for `COC(=O)C(C#N)=NNc1cc(Cl)cc(Cl)c1`, the logP was 4.5.

On to `O=NN(CCF)C(=O)NC1CCSCC1`, for which the logP was 1.43.

`CC(C)CNCNC(=O)c1ccccc1` showed a logP of 1.73.

For `CC(C)C1=Nc2cc(Cl)ccc2S(=O)(=O)N1`, the logP is 2.

`CC(C)c1nnc(N2CCOCC2)n(N)c1=O`: the logP was 0.49.

In the case of `CNC1CC2OC1c1ccccc12` (stereo unspecified), the logP turned out to be 0.91.

Take `Nc1nc2ccccc2o1`: the logP was 1.53.

For the molecule `CCN(CCOC(C)=O)c1ccccc1`, the logP is 2.04.

`Oc1ccc(C(c2ccc(O)cc2)c2nccs2)cc1` displayed a logP of 2.96.

As for `CS(=O)(=O)c1ccc(NS(=O)(=O)C(F)(F)F)cc1`, the logP was determined as 1.99.

Regarding `CCN(CC)C(=O)NN`, the logP is -0.62.

Take `COc1ncnc2ccccc12`: the logP was 1.97.

With `CN(C)/N=N/c1[nH]ncc1C(N)=O`, the logP is -0.12.

In turn, `Cc1cccc(C)c1C(=N)c1ccccc1` returned a logP of 3.53.

`CCCCCCNP(=O)(OC)SC` (stereo unspecified) registered a log partition coefficient (logP) of 1.11.

Take `CSc1nc2ccc(Cl)cc2[nH]1`: the lipophilicity (logP) was 3.22.

With `CCCOn1c(=O)[nH]c(CCC)c(Br)c1=O`, the logP came out at 1.73.

The molecule `CCOC(=O)c1ccc(Cl)nn1` came in with a logP of 0.12.

For `c1ccc(Nc2ccccn2)cc1`, the log partition coefficient (logP) was 2.75.

Regarding `CC(=O)Nc1ccc(OC(=O)CBr)cc1`, the logP was found to be 1.08.

As to `CNC(=O)Oc1ccc(C(C)(C)C)c(C)c1`, the logP was found to be 3.38.

As for `COc1ccc(OC2OC(CO)C(O)C(O)C2O)cc1` (stereo unspecified), the logP was -0.73.

`CCN1C(=N)SC(=Cc2ccc([N+](=O)[O-])o2)C1=O` displayed a logP of 1.44.

The molecule `CCOP(=O)(OCC)Oc1ccc(SC)c(Cl)c1` came in with a logP of 2.94.

`CC1(C)SC2C(NC(=O)C(Cl)c3ccccc3)C(=O)N2C1C(=O)O` (stereo unspecified) yielded a log partition coefficient (logP) of 2.3.

Molecule `COc1cc(Cl)c(NC2=NCCN2)c(Cl)c1` gave a log partition coefficient (logP) of 1.6.

In turn, `Nc1cc(OCC(=O)O)ccc1Cl` displayed a logP of 1.16.

`CCOc1cc(Cc2cnc(N)nc2N)cc(OCC)c1C(C)(C)O`: the logP was determined as 2.46.

As for `CN(C)N=[N+]([O-])c1ccccc1`, the logP amounted to 1.8.

Regarding `CCCCCCCC[n+]1ccc(C)c(C)c1.[I-]`, the logP was -0.41.

Consider `COc1ccc(Cc2cnc(N)nc2N)cc1OCc1ccccc1`, for which the logP came to 2.44.

`COc1ccc(Cc2cnc(N)nc2N)cc1Br`: the logP was found to be 1.88.

Molecule `CCCCC1=Nc2ccc(Cl)cc2S(=O)(=O)N1` showed a logP of 2.52.

As for `Cc1cnc(Cc2ccc(O)cc2)s1`, the logP came to 2.62. The logP values of the last two molecules are within 0.2 log units of each other.

The molecule `CCOC(=O)c1ccc2cccccc1-2` displayed a log partition coefficient (logP) of 3.83.

The molecule `CCOc1cc(Cc2cnc(N)nc2N)cc(OCC)c1N` yielded a logP of 1.69.

As for `O=C1CCC2CCCCC2C1` (stereo unspecified), the logP stood at 1.97.

`COc1cc(C)n(-c2ccncn2)n1` yielded a logP of 2.21.

The molecule `O=C(COc1ccccc1)N1CCCCC1` returned a logP of 1.81.

Regarding `FC1C(Cl)C(Cl)C(Cl)C(Cl)C1Br` (stereo unspecified), the logP stood at 3.28.

In the case of `Brc1ccc(N=C2NCCN2)cc1`, the logP was 1.75.

Molecule `O=[N+]([O-])c1cnc(N=C2SCCN2CCO)s1` came in with a lipophilicity (logP) of 1.28.

On to `O=NN1CCC(=O)CC1`, for which the logP is -0.47.

Regarding `Clc1ccc(N=C2NCCN2)c(Cl)c1`, the lipophilicity (logP) came to 1.96.

In the case of `COc1cc(-n2nc(C)cc2OC)nc(OC)n1`, the logP stood at 1.86. This logP and that of the molecule before are within 0.2 log units of each other.

`CCCCCCCC[n+]1ccccc1C.[I-]`: the logP is -0.77.

Regarding `CCOc1cc(Cc2cnc(N)nc2N)cc(OCC)c1C(C)=O`, the logP came to 2.04.

In turn, `COCC(O)Cn1c([N+](=O)[O-])cnc1C` (stereo unspecified) showed a logP of 0.04.

Consider `CCOC(=O)C(C#N)=NNc1ccc(Cl)c(Cl)c1`, for which the logP came out at 4.66.

On to `O=[N+]([O-])C=Cc1cccc(O)c1`, for which the logP was 2.07.

`COc1cc(Cc2cnc(N)nc2N)ccc1OCc1ccccc1` returned a logP of 2.66.

As for `NNc1ncnc2ccccc12`, the logP worked out at 1.67.

Turning to `COc1cc(Cc2cnc(N)nc2N)cc(C)c1OC`, the lipophilicity (logP) was 1.62.

Regarding `CNC(=O)C1CCCN1C(C)=O` (stereo unspecified), the logP is -1.19.

`CC(=O)N=C1SC(=Cc2ccc([N+](=O)[O-])o2)C(=O)N1C` registered a logP of 1.21.

`COc1ccc(Cc2cnc(N)nc2N)cc1I`: the logP is 2.09.

With `O=[N+]([O-])C=Cc1cc([N+](=O)[O-])ccc1Cl`, the logP was found to be 2.23.

With `CCCNC1CC2CC1c1ccccc12` (stereo unspecified), the logP was determined as 3.3.

As for `C[N+](C)(C)Cc1cccc(N)c1.[Br-]`, the logP is -2.5.

Consider `CNC(=O)c1ccc(S(N)(=O)=O)cc1`, for which the logP is -0.31.

Consider `CCOC(=O)c1[nH]cnc1N=NN(C)C`, for which the logP was 0.44.

In turn, `OCC1OC(Oc2ccc3ccccc3c2)C(O)C(O)C1O` (stereo unspecified) showed a logP of 0.76.

In the case of `Cc1cc(-n2c(=O)cc(C)n2C)nc(C)n1`, the logP came to 0.24.

The molecule `COc1cc(-n2c(=O)cc(C)n2C)ncn1` gave a logP of 0.3.

`CCc1cc(C(=O)NN)ccn1`: the lipophilicity (logP) turned out to be 0.12.

As to `CSC(C)=NOC(=O)N(C)SN(C)C(=O)c1ccc(Cl)cc1`, the logP was found to be 2.6.

For `CC1CCN(N=O)CC1`, the logP came out at 1.05.

With `S=C=Nc1ccc2cc3ccccc3cc2c1`, the logP was found to be 5.7.

In the case of `C#CCOn1c(=O)[nH]c(C)c(Br)c1=O`, the logP was -0.1.

`CNc1nc(N(C)C)nc(N(C)C)n1` came in with a logP of 1.83.

`CCC(C)c1nnc(N)o1` (stereo unspecified) displayed a logP of 0.62.

Consider `CCC(C)On1c(=O)[nH]c(C)c(Br)c1=O` (stereo unspecified), for which the logP was 1.11.

As for `CN(C)N=Nc1ccc(C#N)cc1`, the logP is 2.39.

Regarding `CN(C)C(=O)c1ccoc1`, the logP was 0.24.

Turning to `CSC(C)=NOC(=O)N(C)SN(C)C(=O)OC(C)(C)C`, the logP came to 2.8.

For the molecule `O=C([O-])c1ccc2ccccc2c1.[Na+]`, the logP is -1.07.

As for `COc1cc(-n2c(C)cc(=O)n2C)nc(C)n1`, the logP stood at 0.38.

Regarding `CCOC(=O)C(=Cc1ccccc1)C(=O)OCC`, the logP turned out to be 3.13.

The molecule `Clc1cc(Cl)c(Cl)c(-c2ccc(Cl)c(Cl)c2Cl)c1` gave a logP of 7.39.

Molecule `COC(=O)C(C#N)=NNc1ccc(Cl)cc1C(F)(F)F` registered a logP of 4.66.

As for `Cc1ccccc1-c1nc(N)nc(N)n1`, the logP was 1.26.

Consider `CC1CN(N=O)CCN1N=O` (stereo unspecified), for which the logP was -0.28.

`O=C1CN=C(c2ccccc2F)c2cc(Cl)ccc2N1CC(O)CO` (stereo unspecified) came in with a logP of 1.51.

Take `CSc1nncc(=O)n1N`: the logP came out at 0.38.

`Cc1ccnc2c(O)ccc(C)c12`: the logP was determined as 2.71.

As to `CCCCN(SN(C)C(=O)ON=C(C)SC)C(=O)c1ccccc1`, the logP was 3.4.

`CCCCCCOC(=O)N(C)SN(C)C(=O)ON=C(C)SC` gave a logP of 4.2.

Molecule `CC(C)n1nnc2ccccc21` had a logP of 1.98.

For `CN(Cc1ccc(C#N)cc1)N=Nc1ccc(C(=O)O)cc1`, the logP is 3.6.

In turn, `CN(C)c1cccc(C(N)=O)c1` gave a log partition coefficient (logP) of 0.95.

`COC(=O)C1CCCC(NC(=O)N(CCCl)N=O)C1` (stereo unspecified) yielded a logP of 1.89.

Consider `O=[N+]([O-])c1cccc(OC2OC(CO)C(O)C(O)C2O)c1` (stereo unspecified), for which the logP was -0.51.

With `N#CCN(CC#N)N=O`, the logP stood at 0.04.

`CC(=O)Nc1c(C)cc(O)c(C)c1C`: the logP amounted to 0.75.

`COc1c(C)cc(Cc2cnc(N)nc2N)cc1C`: the logP stood at 2.19.

The molecule `O=C(CNC(=O)c1ccccc1)Oc1cccc(Cl)c1` showed a logP of 3.21.

Turning to `CC(C)(C)C1=Nc2ccc(Cl)cc2S(=O)(=O)N1`, the logP came to 2.4.

In turn, `CN(C)CCC=C1c2ccccc2CCc2c(Cl)cccc21` came in with a logP of 5.55.

For the molecule `COC(=O)C(C#N)=NNc1cc(C(F)(F)F)ccc1Cl`, the lipophilicity (logP) was 4.42.

In turn, `COc1cc(S(=O)(=O)CCN2CCCCC2)cc(OC)c1OC` showed a logP of 1.6.

`CC(C)(C)c1ccc(OC2OC(CO)C(O)C(O)C2O)cc1` (stereo unspecified) showed a logP of 1.18.

Molecule `CC(=O)C(C#N)=NNc1ccc(Cl)cc1C` returned a logP of 4.28.

`NC(=O)Nc1ccc(Oc2ccc(Br)cc2)cc1` gave a logP of 3.7.

For the molecule `CN(C)CCc1ccsc1`, the lipophilicity (logP) was 1.94.

On to `FC(F)OC(F)(F)C(F)Cl` (stereo unspecified), for which the logP is 2.1.
